{
  "source": "patent US20060281110A1",
  "about": "“Methods to identify antimicrobial compounds that interrupt ribosome biogenesis” (MICHIGAN STATE UNIVERSITY, priority 2005, published 2006)",
  "key": {"50S subunit": {"system": "50S subunit", "conditions": "incubated 10 minutes at 37° C.; 10-25% sucrose gradient; FIG. 16", "method": "(§1) The data was collected from 12% SDS-PAGE electrophoresis and blotted to a nylon membrane using standard Western Blot analysis. Incubations using rabbit polyclonal YlqF antibody was followed by horseradish peroxidase-conjugated goat anti-rabbit antibody and Western Lightning® (PerkinElmer) chemiluminescent detection. Purified YlqF-His6 was added as a comparative marker.\n(§2) A B. subtilis strain was constructed that expresses a YlqF-His6 fusion protein as the only functional YlqF copy in the cell. […] The YlqF-His6 fusion protein was purified and tested for association with purified 45S intermediates and mature 50S subunits. YlqF-His6 and either the 45S intermediate or 50S subunits were mixed and incubated for 10 minutes at 37° C. The mixtures were then fractionated on 10-25% sucrose gradients and individual fractions corresponding to the 45S and 50S peaks were collected. […] Although it is not necessary to understand the mechanism of an invention, it is believed that YlqF functions as a factor involved in the biogenesis of the 50S subunit."}, "45S intermediate": {"system": "45S intermediate", "assay": "In vitro association of YlqF-His6 with ribosomal particles (sucrose gradient, Western blot)", "type": "binding, B. subtilis", "conditions": "incubated 10 minutes at 37° C.; 10-25% sucrose gradient; FIG. 16", "method": "as §1, §2"}},
  "data": [
    {"substance": "YlqF-His6: purified His6 fusion to the C-terminus of B. subtilis GTPase YlqF", "values": [
      {"measurement": "binding to mature 50S subunit", "setting": "50S subunit", "result": "not the 50S subunit"},
      {"measurement": "binding to 45S intermediate", "setting": "45S intermediate", "result": "able to bind the 45S intermediate"}
    ]}
  ]
}
